Measured values taken from publication PMC10407959 (Journal of medicinal chemistry, 2023).
Entries after “also recorded” stand apart in the source; their conditions may differ. Read-outs that look alike come from different tables or passages of the source. Marks after values point to notes of the source that are not given here.

Key:
[1] = system: protease-mediated mouse model of allergic asthma; experiment: protease-mediated mouse model of allergic asthma, BAL fluid cells; conditions: 10 mg/kg i.p., C57BL/6J mice
[2] = system: Nonhuman primate (chimpanzee) P2Y14R; conditions: read-out: IC50 (P2Y14R), ref Belley et al.[15]; cited from earlier work
mouse CCI model = experiment: mouse model of chronic neuropathic pain; conditions: for reversal of mechano-allodynia (paw withdrawal threshold): day 7 post-sciatic nerve constriction, adult male mice
[3] = in mouse; cited from earlier work
5-HT5A = 5-HT5A (Homo sapiens, UniProt P47898); experiment: PDSP off-target radioligand binding; conditions: read-out: Ki, 5-HT5A; NIMH PDSP
5-HT5A, sequence (P47898 whole entry, species assumed): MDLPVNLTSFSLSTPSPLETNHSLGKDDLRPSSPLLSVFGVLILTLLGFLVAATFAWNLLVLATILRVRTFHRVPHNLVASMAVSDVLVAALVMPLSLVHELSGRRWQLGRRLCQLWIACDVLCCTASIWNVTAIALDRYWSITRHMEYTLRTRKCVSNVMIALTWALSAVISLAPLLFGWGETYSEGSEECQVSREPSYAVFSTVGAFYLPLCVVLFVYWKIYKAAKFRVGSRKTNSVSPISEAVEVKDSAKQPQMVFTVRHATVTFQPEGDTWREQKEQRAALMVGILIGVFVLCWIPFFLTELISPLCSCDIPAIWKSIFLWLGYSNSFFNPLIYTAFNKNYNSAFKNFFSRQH

σ2 receptor = biological target: T1, σ2 receptor (Rattus norvegicus, UniProt Q5U3Y7); experiment: PDSP off-target radioligand binding; conditions: read-out: Ki, σ2 receptor; NIMH PDSP
T1 sequence (Q5U3Y7 1-176): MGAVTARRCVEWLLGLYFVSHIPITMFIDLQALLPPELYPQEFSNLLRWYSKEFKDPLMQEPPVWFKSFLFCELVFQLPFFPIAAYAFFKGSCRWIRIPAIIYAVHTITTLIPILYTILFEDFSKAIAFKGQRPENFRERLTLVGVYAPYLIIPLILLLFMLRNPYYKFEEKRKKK

serotonin 5-HT1B = serotonin 5-HT1B (Homo sapiens, UniProt P28222); experiment: PDSP off-target radioligand binding; conditions: read-out: Ki, serotonin 5-HT1B; NIMH PDSP
serotonin 5-HT1B, sequence (P28222 whole entry): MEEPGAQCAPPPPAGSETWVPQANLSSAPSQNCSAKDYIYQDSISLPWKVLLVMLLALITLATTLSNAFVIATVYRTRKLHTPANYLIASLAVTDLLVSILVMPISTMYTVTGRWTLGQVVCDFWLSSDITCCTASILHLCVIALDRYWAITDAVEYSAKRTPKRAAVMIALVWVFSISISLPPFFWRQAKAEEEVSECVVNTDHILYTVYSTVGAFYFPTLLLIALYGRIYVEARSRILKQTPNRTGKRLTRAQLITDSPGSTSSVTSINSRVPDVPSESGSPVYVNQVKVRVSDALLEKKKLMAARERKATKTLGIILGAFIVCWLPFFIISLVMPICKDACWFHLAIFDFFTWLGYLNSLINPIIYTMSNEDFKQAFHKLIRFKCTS

HPLC-based Log D7.4 = format: physicochemical; conditions: from HPLC retention factors, calibration with five standards
hP2Y14R [4] = biological target: T2, hP2Y14R (Homo sapiens, UniProt Q15391); experiment: whole-cell fluorescent competitive binding assay
T2 sequence (Q15391 1-338): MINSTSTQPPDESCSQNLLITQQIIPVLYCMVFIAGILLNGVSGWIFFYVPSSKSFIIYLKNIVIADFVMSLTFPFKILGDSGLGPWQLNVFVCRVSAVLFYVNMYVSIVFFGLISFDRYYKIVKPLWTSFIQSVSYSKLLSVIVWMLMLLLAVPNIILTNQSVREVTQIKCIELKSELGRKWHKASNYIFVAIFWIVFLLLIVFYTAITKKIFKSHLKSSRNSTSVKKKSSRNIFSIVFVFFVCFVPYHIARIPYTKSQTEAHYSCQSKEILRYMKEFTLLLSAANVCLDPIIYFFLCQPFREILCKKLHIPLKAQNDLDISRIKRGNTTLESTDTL

σ1 receptor = σ1 receptor (Cavia porcellus, UniProt Q60492); experiment: PDSP off-target radioligand binding; conditions: read-out: Ki, σ1 receptor; NIMH PDSP
σ1 receptor, sequence (Q60492 whole entry): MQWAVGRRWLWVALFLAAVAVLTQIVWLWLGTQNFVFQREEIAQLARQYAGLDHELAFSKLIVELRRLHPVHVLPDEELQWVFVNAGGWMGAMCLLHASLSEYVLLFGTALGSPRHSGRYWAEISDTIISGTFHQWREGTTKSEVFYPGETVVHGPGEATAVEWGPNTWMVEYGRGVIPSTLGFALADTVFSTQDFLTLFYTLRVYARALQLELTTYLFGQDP

[5] = male, Wistar, rat, in vivo, ip
[6] = pharmacokinetics and tolerability in male Wistar rats
[7] = system: cardiac ischemia-reperfusion (I/R) injury; experiment: cardiac ischemia-reperfusion; format: in vivo, mouse; conditions: 2 mg/kg/day minipump
mP2Y14R = biological target: T3, mP2Y14R (Mus musculus, UniProt Q9ESG6); experiment: whole-cell fluorescent binding assay at mP2Y14R expressed in HEK-293 cells
T3 sequence (Q9ESG6 1-338): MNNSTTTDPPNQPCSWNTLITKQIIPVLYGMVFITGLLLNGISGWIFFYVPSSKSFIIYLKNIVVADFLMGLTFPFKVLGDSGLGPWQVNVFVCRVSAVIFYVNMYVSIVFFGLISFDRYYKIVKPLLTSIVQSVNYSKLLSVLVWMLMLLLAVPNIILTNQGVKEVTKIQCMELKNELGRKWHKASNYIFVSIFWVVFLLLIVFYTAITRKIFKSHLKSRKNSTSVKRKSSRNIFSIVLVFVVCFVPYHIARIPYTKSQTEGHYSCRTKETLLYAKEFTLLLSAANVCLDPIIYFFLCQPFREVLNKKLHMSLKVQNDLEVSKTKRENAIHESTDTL

[8] = mouse (m), ref Wen et al. 5; cited from earlier work
CYP2D6 = CYP2D6 (Homo sapiens, UniProt P10635); conditions: read-out: CYP2D6 (IC50); ref Wen et al. 5; cited from earlier work
CYP2D6, sequence (P10635 whole entry): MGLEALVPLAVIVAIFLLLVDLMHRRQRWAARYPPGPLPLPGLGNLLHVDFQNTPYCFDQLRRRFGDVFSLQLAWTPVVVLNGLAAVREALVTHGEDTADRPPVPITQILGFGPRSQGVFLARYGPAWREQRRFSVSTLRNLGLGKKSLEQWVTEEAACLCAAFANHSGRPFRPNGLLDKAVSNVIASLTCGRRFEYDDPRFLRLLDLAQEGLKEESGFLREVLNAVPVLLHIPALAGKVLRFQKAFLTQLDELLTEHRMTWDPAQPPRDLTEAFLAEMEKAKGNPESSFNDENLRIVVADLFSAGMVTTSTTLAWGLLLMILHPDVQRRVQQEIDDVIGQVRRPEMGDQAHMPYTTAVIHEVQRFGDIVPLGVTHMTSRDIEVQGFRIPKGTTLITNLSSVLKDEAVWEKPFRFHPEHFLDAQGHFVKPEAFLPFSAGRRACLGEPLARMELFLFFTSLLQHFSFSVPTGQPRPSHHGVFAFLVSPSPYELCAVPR

[9] = rat (r), ref Wen et al. 5; cited from earlier work
[10] = pH 7.4, pION method, determined by Jai Research Foundation; ref Wen et al. 5; cited from earlier work
[11] = rat, 3 mg/kg, i.p.; previous data; cited from earlier work
CYP3A4 = CYP3A4 (Homo sapiens, UniProt P08684); conditions: read-out: CYP3A4 (IC50); ref Wen et al. 5; cited from earlier work
CYP3A4, sequence (P08684 whole entry): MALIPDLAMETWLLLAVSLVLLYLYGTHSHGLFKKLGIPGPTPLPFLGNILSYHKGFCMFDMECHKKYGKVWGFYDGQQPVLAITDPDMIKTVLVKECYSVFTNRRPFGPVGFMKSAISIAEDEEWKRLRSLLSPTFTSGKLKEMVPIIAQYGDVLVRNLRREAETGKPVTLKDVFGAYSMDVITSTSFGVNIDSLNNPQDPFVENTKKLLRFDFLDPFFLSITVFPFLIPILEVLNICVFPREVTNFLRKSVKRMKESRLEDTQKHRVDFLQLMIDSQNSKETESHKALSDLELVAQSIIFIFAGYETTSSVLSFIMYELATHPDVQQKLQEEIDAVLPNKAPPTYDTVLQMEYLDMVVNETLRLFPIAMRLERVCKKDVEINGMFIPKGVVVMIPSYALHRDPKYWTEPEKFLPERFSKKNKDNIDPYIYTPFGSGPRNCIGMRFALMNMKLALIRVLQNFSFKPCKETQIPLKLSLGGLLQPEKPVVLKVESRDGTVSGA

[12] = ref Wen et al. 5; cited from earlier work
hP2Y14R [13] = biological target: T2, hP2Y14R; experiment: cell-based
CYP2C9 = CYP2C9 (Homo sapiens, UniProt P11712); conditions: read-out: CYP2C9 (IC50); ref Wen et al. 5; cited from earlier work
CYP2C9, sequence (P11712 whole entry): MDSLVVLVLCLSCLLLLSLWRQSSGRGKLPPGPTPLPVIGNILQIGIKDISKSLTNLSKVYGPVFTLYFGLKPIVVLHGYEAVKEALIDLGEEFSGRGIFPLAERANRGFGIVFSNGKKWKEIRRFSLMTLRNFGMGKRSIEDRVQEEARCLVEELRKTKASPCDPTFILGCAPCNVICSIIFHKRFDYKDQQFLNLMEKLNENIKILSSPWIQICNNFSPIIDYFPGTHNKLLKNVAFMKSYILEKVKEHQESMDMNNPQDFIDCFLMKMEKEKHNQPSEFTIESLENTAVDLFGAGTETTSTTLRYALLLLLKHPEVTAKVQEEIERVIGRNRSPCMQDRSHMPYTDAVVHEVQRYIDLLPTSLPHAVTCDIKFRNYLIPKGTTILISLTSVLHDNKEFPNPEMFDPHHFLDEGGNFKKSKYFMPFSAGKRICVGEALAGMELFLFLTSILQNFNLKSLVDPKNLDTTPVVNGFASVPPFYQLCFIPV

CYP2C19 = CYP2C19 (Homo sapiens, UniProt P33261); conditions: read-out: CYP2C19 (IC50); ref Wen et al. 5; cited from earlier work
CYP2C19, sequence (P33261 whole entry): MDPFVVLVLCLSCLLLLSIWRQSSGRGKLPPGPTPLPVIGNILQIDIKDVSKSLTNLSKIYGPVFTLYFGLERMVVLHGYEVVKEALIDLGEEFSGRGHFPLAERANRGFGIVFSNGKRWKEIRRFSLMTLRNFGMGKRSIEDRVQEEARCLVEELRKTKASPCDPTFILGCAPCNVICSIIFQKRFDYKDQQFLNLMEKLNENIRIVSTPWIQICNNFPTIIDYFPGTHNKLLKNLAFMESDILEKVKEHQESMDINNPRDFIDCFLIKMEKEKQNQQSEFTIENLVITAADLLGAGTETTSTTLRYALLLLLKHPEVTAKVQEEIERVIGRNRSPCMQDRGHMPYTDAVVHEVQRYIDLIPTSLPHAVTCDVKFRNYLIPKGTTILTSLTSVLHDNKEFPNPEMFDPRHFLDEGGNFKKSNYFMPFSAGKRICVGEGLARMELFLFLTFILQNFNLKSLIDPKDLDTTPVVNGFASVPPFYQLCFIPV

CYP1A2 = biological target: T4, CYP1A2 (Homo sapiens, UniProt P05177); conditions: read-out: CYP1A2 (IC50); ref Wen et al. 5; cited from earlier work
T4 sequence (P05177 1-516): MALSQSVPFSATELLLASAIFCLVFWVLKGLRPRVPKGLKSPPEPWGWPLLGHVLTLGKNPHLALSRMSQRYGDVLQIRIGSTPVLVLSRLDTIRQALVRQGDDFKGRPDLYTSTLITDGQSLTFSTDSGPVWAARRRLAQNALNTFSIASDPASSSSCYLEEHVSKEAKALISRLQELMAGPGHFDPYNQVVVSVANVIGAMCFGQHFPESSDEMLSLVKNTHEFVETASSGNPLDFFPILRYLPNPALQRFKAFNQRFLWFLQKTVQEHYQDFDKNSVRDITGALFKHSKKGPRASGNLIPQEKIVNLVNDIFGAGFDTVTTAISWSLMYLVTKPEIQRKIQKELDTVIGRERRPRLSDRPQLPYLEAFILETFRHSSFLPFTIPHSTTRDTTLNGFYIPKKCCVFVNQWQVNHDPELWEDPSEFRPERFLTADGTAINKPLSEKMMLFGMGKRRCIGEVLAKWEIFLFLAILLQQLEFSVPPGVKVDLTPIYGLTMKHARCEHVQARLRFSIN

[14] = ref Wen et al. 5; cited from earlier work; remark: listed apart in the source
hERG = hERG (Homo sapiens, UniProt Q12809); conditions: read-out: hERG, IC50; fluorescent dye binding method; ref Wen et al. 5; cited from earlier work
hERG, sequence (Q12809 whole entry): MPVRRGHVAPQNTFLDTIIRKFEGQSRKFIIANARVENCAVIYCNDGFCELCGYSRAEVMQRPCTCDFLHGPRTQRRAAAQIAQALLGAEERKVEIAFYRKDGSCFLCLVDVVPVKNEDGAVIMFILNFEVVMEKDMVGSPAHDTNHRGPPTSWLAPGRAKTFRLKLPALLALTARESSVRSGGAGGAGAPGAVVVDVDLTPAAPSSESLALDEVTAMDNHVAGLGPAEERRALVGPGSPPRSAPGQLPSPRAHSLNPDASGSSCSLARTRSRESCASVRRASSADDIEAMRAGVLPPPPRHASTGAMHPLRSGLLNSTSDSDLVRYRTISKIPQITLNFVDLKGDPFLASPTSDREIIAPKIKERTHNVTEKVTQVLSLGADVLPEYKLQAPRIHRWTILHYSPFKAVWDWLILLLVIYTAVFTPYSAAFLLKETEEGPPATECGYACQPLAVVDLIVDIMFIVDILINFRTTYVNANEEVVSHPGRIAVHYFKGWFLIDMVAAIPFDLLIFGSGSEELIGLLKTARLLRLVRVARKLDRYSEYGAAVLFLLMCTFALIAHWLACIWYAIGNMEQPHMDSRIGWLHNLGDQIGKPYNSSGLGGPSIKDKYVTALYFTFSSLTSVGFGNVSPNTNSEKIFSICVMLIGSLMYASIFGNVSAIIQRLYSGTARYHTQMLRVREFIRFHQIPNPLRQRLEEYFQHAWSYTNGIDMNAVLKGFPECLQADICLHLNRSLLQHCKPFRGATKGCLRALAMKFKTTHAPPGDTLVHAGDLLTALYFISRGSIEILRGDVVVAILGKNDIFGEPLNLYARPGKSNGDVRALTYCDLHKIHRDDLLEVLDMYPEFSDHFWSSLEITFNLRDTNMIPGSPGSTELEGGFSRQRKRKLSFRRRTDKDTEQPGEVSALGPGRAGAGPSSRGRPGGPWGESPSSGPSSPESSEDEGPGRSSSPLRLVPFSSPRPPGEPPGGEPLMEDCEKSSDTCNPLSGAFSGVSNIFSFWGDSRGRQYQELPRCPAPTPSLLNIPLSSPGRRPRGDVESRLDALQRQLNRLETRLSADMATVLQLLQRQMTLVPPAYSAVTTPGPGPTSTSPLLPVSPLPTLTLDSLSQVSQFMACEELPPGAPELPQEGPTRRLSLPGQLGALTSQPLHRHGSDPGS

O=C(O)c1cc(-c2ccc(C3CCNCC3)cc2)c2ccc(-c3ccc(C(F)(F)F)cc3)cc2c1 [compound 1, 4-(4-(Piperidin-4-yl)phenyl)-7-(4-(trifluoromethyl)phenyl)-2-naphthoic Acid, reference compound]
airway eosinophilia (eosinophils in BAL fluid) [1]: reduce airway eosinophilia | lymphocytes in the BAL fluid [1]: trend toward lower lymphocytes | IC50 [2]: 0.0022 µM | reversal of mechano-allodynia (paw withdrawal threshold) (mouse CCI model; 10 μmol/kg, p.o. (oral gavage)): full reversal of mechano-allodynia; also recorded: reversed the mechano-allodynia | oral bioavailability [3]: 5 % F

Mixture of 4-(4-(2,3,6,7-Tetrahydro-1H-azepin-4-yl)phenyl)-7-(4-(trifluoromethyl)phenyl)-2-naphthoic Acid and 4-(4-(2,5,6,7-Tetra-hydro-1H-azepin-4-yl)phenyl)-7-(4-(trifluoromethyl)phenyl)-2-naphthoic Acid [compound 17]
Ki (5-HT5A): 4 µM | Ki (σ2 receptor): 3.9 µM | Ki (serotonin 5-HT1B): 4.1 µM | Log D7.4 (HPLC-based Log D7.4): 2.2±0.0 | Ki (hP2Y14R [4]): 0.00692 µM | IC50 (hP2Y14R [4]; read-out: IC50 (nM), affinity at hP2Y14R, whole-cell fluorescent binding, tracer 52 (20 nM), hP2Y14R-CHO cells, n = 3–4 unless noted): 11.9 ± 3.6 nM | Ki (σ1 receptor): 0.84 µM

O=C(O)c1cc(-c2ccc([C@]3(O)[C@@H]4CNC[C@H]3C4)cc2)c2ccc(-c3ccc(C(F)(F)F)cc3)cc2c1 [compound 15, 4-(4-((1R,5S,6r)-6-Hydroxy-3-azabicyclo[3.1.1]heptan-6-yl)-phenyl)-7-(4-(trifluoromethyl)phenyl)-2-naphthoic Acid]
Maximal plasma concentration ([5]; 1 mg/kg): 0.50 µM | Maximal plasma concentration ([5]; 3 mg/kg): 1.3 µM | Maximal plasma concentration ([5]; 10 mg/kg): 4.0 µM | mortality or morbidity / tolerability ([6]; male Wistar rats, 1, 3, and 10 mg/kg i.p. and 0.5 mg/kg i.v.): well tolerated | half-life ([6]; male, Wistar, rat, plasma, ip, 3 mg/kg): 4.3 h | airway eosinophilia (eosinophils in BAL fluid) [1]: demonstrated significant protection | lymphocytes in the BAL fluid [1]: trend toward lower lymphocytes | protection against heart I/R injury [7]: no protection against heart I/R injury | reversal of mechano-allodynia (paw withdrawal threshold) (mouse CCI model; 10 μmol/kg, p.o. (oral gavage)): nearly complete protection at 1 h; also recorded: reversed the mechano-allodynia | reversal of mechano-allodynia (paw withdrawal threshold) (mouse CCI model; i.p. injection): full reversal of mechano-allodynia within 0.5 h | duration of the protection (mouse CCI model; oral gavage, 10 μmol/kg, 1 and 15 in the same CCI experiment): longer than protection by 1 | mP2Y14R affinity higher than reference antagonist 1 (mP2Y14R): 4.5 fold | ligand efficiency (LE) (hP2Y14R [4]): 0.311

O=C(O)c1cc(-c2ccc([C@H]3C[C@H]4C[C@@H]3CN4)cc2)c2ccc(-c3ccc(C(F)(F)F)cc3)cc2c1 [2b, 4-(4-((1S,4S,5S)-2-Azabicyclo[2.2.1]heptan-5-yl)phenyl)-7-(4-(trifluoromethyl)phenyl)-2-naphthoic Acid]
plasma stability (% remaining at 120 min) [8]: 100% | IC50 (CYP2D6): > 30 µM | plasma stability (% remaining at 120 min) [9]: 82.8% | solubility, (μg/mL) [10]: 1.90 (pH 7.4)^d μg/mL | bioavailability [11]: 43 %F | IC50 (CYP3A4): > 30 µM | simulated gastric fluid (% remaining at 120 min) [12]: 100^a % | Ki (hP2Y14R [13]): 0.00181 µM | IC50 (CYP2C9): > 30 µM | IC50 (CYP2C19): > 30 µM | IC50 (CYP1A2): > 30 µM | simulated intestinal fluid (% remaining at 120 min) [14]: 99.1% | IC50 (hERG): > 30 µM
